Format in all cases: in vivo, mouse
In series [1] the test system is non-irradiated MC38 tumors. The series can be described thus: MC38 two-tumor model, growth of non-irradiated tumors (abscopal effect). The note with it: RA and IR treatment of primary tumor compared to any single treatment. How it is done:
(§1) 1×10^6 MC38, B16/F1, Renca or CT26 cells were subcutaneously implanted into flanks of mice. Tumors were irradiated using a Phillips IR250 orthovoltage X-ray generator (Phillips, Amsterdam, the Netherlands) operating at 250 kV 15 mA. Subcutaneous local tumors were irradiated by shielding bodies with a cylindrical lead cover with only flank tumors exposed for radiation. ATRA (400 μg/mice/day) was administered by oral gavage for 10 days. For the two-tumor model, 1×10^6 and 0.7×10^6 MC38 cells were subcutaneously implanted into the right and left flank of mice respectively. For the tumor re-challenge assay, both the cured mice and the naive mice were re-challenged with 5×10^6 MC38 or 1×10^6 LLC cells respectively. Tumors were measured along two diameters (length and width) and depth twice weekly and volumes were calculated as length×width×depth/2. For CD8 and CD4 T cell depletion experiments, 200 μg antibodies were injected i.p. on day 0, 2, 5 and 8 after radiation. Anti-CD11b antibody was injected i.p. every two days starting 1 day before radiation. Anti-PD-L1 antibody was administered i.p. on day 0, 3, and 7 after radiation at 200 μg/mouse. Anti-IFN-γ was administered i.p. at 500 μg/mouse every 7 days. Anti-NK1.1 antibody was administered via i.p. at 25 μg/mouse every 3 days for 3 doses. Anti-GM-CSF antibody was given by i.p. injection at 250 μg/mouse every 2 days. […]

The next series has as its system LLC cells. As to the kind of experiment: Tumor re-challenge of cured mice with LLC cells. The note with it: mice cured by IR+RA vs naive mice, 1×10^6 LLC cells. As for the experimental part:
as §1

Another series concerns B16 melanoma tumor model. The series can be described thus: B16 melanoma tumor growth after IR and RA. The note with it: IR and RA combination compared with single treatments. How it is done:
(§2) 1×10^6 MC38, B16/F1, Renca or CT26 cells were subcutaneously implanted into flanks of mice. Tumors were irradiated using a Phillips IR250 orthovoltage X-ray generator (Phillips, Amsterdam, the Netherlands) operating at 250 kV 15 mA. Subcutaneous local tumors were irradiated by shielding bodies with a cylindrical lead cover with only flank tumors exposed for radiation. ATRA (400 μg/mice/day) was administered by oral gavage for 10 days. For the two-tumor model, 1×10^6 and 0.7×10^6 MC38 cells were subcutaneously implanted into the right and left flank of mice respectively. […] Tumors were measured along two diameters (length and width) and depth twice weekly and volumes were calculated as length×width×depth/2. For CD8 and CD4 T cell depletion experiments, 200 μg antibodies were injected i.p. on day 0, 2, 5 and 8 after radiation. Anti-CD11b antibody was injected i.p. every two days starting 1 day before radiation. Anti-PD-L1 antibody was administered i.p. on day 0, 3, and 7 after radiation at 200 μg/mouse. Anti-IFN-γ was administered i.p. at 500 μg/mouse every 7 days. Anti-NK1.1 antibody was administered via i.p. at 25 μg/mouse every 3 days for 3 doses. Anti-GM-CSF antibody was given by i.p. injection at 250 μg/mouse every 2 days. FTY720 was delivered via gavage at 20 μg per dose every day for 7 days. […]

The subject of series [2] is Renca (a renal cancer tumor model). The series can be described thus: Renca tumor growth after IR and RA. Particulars: IR and RA combination compared with single treatments. How it is done:
as §2

Series [3] has as its system MC38 syngeneic subcutaneous flank tumor. The series can be described thus: ATRA-sensitized fractionated radiotherapy in MC38 tumor bearing C57BL/6 mice. Particulars: 3 fractions. How it is done: A MC38 syngeneic subcutaneous flank tumor-bearing mouse model was used for the evaluation of in vivo efficacy of ATRA-sensitized radiotherapy. 2×10^6 MC38 cells were injected into the right flank subcutaneous tissues of C57BL/6 background mice. […] After administration, mice were anaesthetized with 2% (v/v) isoflurane and the tumors were irradiated daily with X-ray at a dose of 2 Gy/fraction (225 kVp, 13 mA, 0.3 mm-Cu filter) for a total of 3 fractions. Oil (equal volume/each) was administrated daily with or without irradiation as controls. […] All the mice were sacrificed when the tumors reached about 2,000 mm^3.

The test system of the next series is CT26 tumor. The series can be described thus: ATRA-sensitized fractionated radiotherapy in CT26 tumor bearing BALB/c mice. The note with it: 6 fractions. As for the experimental part:
2×10^6 CT26 cells were subcutaneously injected into the right flanks of BALB/c mice. When the tumors reached 100-120 mm^3 in volume, ATRA in corn oil (400 μg/each) was daily administrated via oral gavage. After administration, mice were anaesthetized with 2% (v/v) isoflurane and the tumors were irradiated daily with X-ray at a dose of 1 Gy/fraction (225 kVp, 13 mA, 0.3 mm-Cu filter) for a total of 6 fractions on six consecutive days. Oil (equal volume/each) was daily administrated with or without irradiation as a control. The tumor size was measured with a caliper every day and the tumor volume calculated as 0.5×length×width 2. All the mice were sacrificed when the tumors reached about 2000 mm^3.

The mark [4] stands for this setting: ATRA 400 μg/each oral gavage daily plus X-ray 2 Gy/fraction.
Setting [5] is: ATRA 400 μg/each oral gavage daily plus X-ray 1 Gy/fraction.

As to `CC1=C(/C=C/C(C)=C/C=C/C(C)=C/C(=O)O)C(C)(C)CCC1` [RA, all-trans retinoic acid], the “growth of non-irradiated tumors” value in series [1] was “slower growth rate”. Besides, in the series with LLC cells, the “growth of LLC after re-challenge” value is recorded as “grew at the same rate”. Moreover, the B16 tumor growth result with B16 melanoma tumor model is recorded as “significant benefit”. Also, in series [2], the Renca tumor growth entry was “significant benefit”. In addition, in series [3] (setting [4]), the MC38 tumor growth entry is “greatly regressed the growth of tumors” and the “mice totally free of tumors” value was 5 out of 5. For the same molecule, the body weight entry in series [3] (ATRA and X-ray 2 Gy/fraction) is “did not lose body weight”. In addition, the “time without tumor regrowth” value in series [3] (ATRA plus X-ray 2 Gy/fraction) is recorded as ≥ 30 days. In the series on CT26 tumor (setting [5]), the CT26 tumor growth entry was “regressed tumor growth” and the “mice totally free of tumors” value is 2 out of 5. In addition, in the series on CT26 tumor (ATRA plus X-ray 1 Gy/fraction), the body weight result was “No weight loss”.
